What was measured:
Details in all cases: human; call rule not given here
[1] = system: Hepatotoxicity; assay: FDA HLAED, alkaline phosphatase increase
[2] = system: Hepatotoxicity; assay: FDA HLAED, serum glutamic oxaloacetic transaminase (SGOT) increase
[3] = system: Hepatotoxicity; assay: FDA HLAED, gamma-glutamyl transferase (GGT) increase
[4] = system: Hepatotoxicity; assay: FDA HLAED, liver enzyme composite activity
[5] = system: Hepatotoxicity; assay: FDA HLAED, lactate dehydrogenase (LDH) increase
[6] = system: Hepatotoxicity; assay: FDA HLAED, serum glutamic pyruvic transaminase (SGPT) increase
For GGT Increase - Index Value in this document: reference of the scale not given here.
For LDH Increase - Index Value in this document: reference of the scale not given here.

SMILES | Alkaline Phosphatase Increase - Activity Score [1] | Alkaline Phosphatase Increase - Index Value [1] | Alkaline Phosphatase Increase - Number of Reports [1] | SGOT Increase - Activity Score [2] | SGOT Increase - Index Value [2] | SGOT Increase - Number of Reports [2] | GGT Increase - Activity Score [3] | GGT Increase - Index Value [3] | GGT Increase - Number of Reports [3] | Composite Activity - Active [4] | Composite Activity - Marginal [4] | Composite Activity - Score [4] | LDH Increase - Activity Score [5] | LDH Increase - Index Value [5] | LDH Increase - Number of Reports [5] | SGPT Increase - Activity Score [6] | SGPT Increase - Index Value [6] | SGPT Increase - Number of Reports [6] | other results
NC(=O)OCC(COC(N)=O)c1ccccc1 [FELBAMATE] | Active | 15 | >= 4 | Active | 11.7 | >= 4 | Active | 15.8 | >= 4 | 5 | 0 | Active | Active | 8.3 | >= 4 | Active | 11.7 | >= 4 | –
CCOC(=O)C1=C(C)NC(C)=C(C(=O)OC)C1c1cccc(Cl)c1Cl (stereo unspecified) [FELODIPINE] | Inactive | 0.6 | < 4 | Inactive | 0.3 | < 4 | Inactive | 0.3 | < 4 | 0 | 0 | Inactive | Inactive | 0.3 | < 4 | Inactive | 0.3 | < 4 | –
CC(C)(C(=O)O)c1ccc(C(O)CCCN2CCC(C(O)(c3ccccc3)c3ccccc3)CC2)cc1 (stereo unspecified) [FEXOFENADINE] | Inactive | 0 | < 4 | Inactive | 0 | < 4 | Inactive | 0 | < 4 | – | – | – | Inactive | 0 | < 4 | Inactive | 0 | < 4 | Composite Activity - Active ([4]; Liver): 0; Composite Activity - Marginal ([4]; Liver): 0; Composite Activity - Score ([4]; Liver): Inactive
CC(C)(C)NC(=O)[C@H]1CC[C@H]2[C@@H]3CC[C@H]4NC(=O)C=C[C@]4(C)[C@H]3CC[C@]12C [FINASTERIDE] | Inactive | 2.5 | >= 4 | Inactive | 2.7 | >= 4 | Inactive | 1 | >= 4 | 0 | 0 | Inactive | Inactive | 1.1 | >= 4 | Inactive | 2.7 | >= 4 | –
O=C(NCC1CCCCN1)c1cc(OCC(F)(F)F)ccc1OCC(F)(F)F (stereo unspecified) [FLECAINIDE] | Active | 8.3 | >= 4 | Active | 9.6 | >= 4 | Inactive | 0 | < 4 | 3 | 1 | Active | Marginally Active | 3.2 | >= 4 | Active | 8.3 | >= 4 | –
Cn1cc([S+](C)[O-])c(=O)c2ccc(F)cc21 (stereo unspecified) [FLOSEQUINAN] | Inactive | 14.1 | < 4 | Inactive | 28.3 | < 4 | Inactive | 0 | < 4 | 1 | 0 | Inactive | Active | 56.6 | >= 4 | Inactive | 28.3 | < 4 | –
OC(Cn1cncn1)(Cn1cncn1)c1ccc(F)cc1F [FLUCONAZOLE] | Active | 8.4 | >= 4 | Active | 9.8 | >= 4 | Active | 4.2 | >= 4 | – | – | – | Marginally Active | 3 | >= 4 | Active | 9.1 | >= 4 | Composite Activity - Active ([4]; Liver): 4; Composite Activity - Marginal ([4]; Liver): 1; Composite Activity - Score ([4]; Liver): Active
Nc1nc(F)nc2c1ncn2[C@@H]1O[C@H](CO)[C@@H](O)[C@@H]1O [FLUDARABINE] | Active | 9.2 | >= 4 | Active | 9.2 | >= 4 | Inactive | 0 | < 4 | 4 | 0 | Active | Active | 18.3 | >= 4 | Active | 10.7 | >= 4 | –
CCOC(=O)c1ncn2c1CN(C)C(=O)c1cc(F)ccc1-2 [FLUMAZENIL] | Inactive | 0 | < 4 | Inactive | 2.5 | < 4 | Inactive | 0 | < 4 | 0 | 0 | Inactive | Inactive | 0 | < 4 | Inactive | 2.5 | < 4 | –
CC1(C)O[C@@H]2C[C@H]3[C@@H]4C[C@H](F)C5=CC(=O)C=C[C@]5(C)[C@H]4[C@@H](O)C[C@]3(C)[C@]2(C(=O)CO)O1 [FLUNISOLIDE] | Inactive | 0 | < 4 | Inactive | 0 | < 4 | Inactive | 0 | < 4 | 0 | 0 | Inactive | Inactive | 0 | < 4 | Inactive | 0 | < 4 | –
CNCCC(Oc1ccc(C(F)(F)F)cc1)c1ccccc1 (stereo unspecified) [FLUOXETINE] | Active | 4.7 | >= 4 | Active | 9.6 | >= 4 | Marginally Active | 3.3 | >= 4 | 3 | 2 | Active | Marginally Active | 3.2 | >= 4 | Active | 8.7 | >= 4 | –
CC(C(=O)O)c1ccc(-c2ccccc2)c(F)c1 (stereo unspecified) [FLURBIPROFEN] | Inactive | 0.9 | >= 4 | Inactive | 0.9 | >= 4 | Inactive | 0.9 | >= 4 | 0 | 0 | Inactive | Inactive | 0.2 | < 4 | Inactive | 0.9 | >= 4 | –

Source: ChEMBL document CHEMBL1697781, “Assessment of the health effects of chemicals in humans: II. Construction of an adverse effects database for QSAR modeling” (Curr Drug Discov Technol, 2004)
